Test results published in patent publication US6362203B1, “4-hydroxy-4-phenylpiperidine derivatives and pharmaceuticals containing the same” (SSP Co., LTD, priority 1999, dated 2002).

Legend:
opioid receptor = conditions: agonist activity relative to DAMGO (=1.0); guinea pig ileum longitudinal muscle sample
Method: Test 1: Action on the ileum sample excised from a guinea pig
A Hartley male guinea pig of about 500 g in weight was employed. From its ileocecum, 15 to 30 cm of the ileum was excised and a longitudinal muscle sample attached with the Auerbach's plexus was prepared. […] The agonist activity was indicated in terms of relative potency to DAMGO ([D-Ala^2, N-MePhe^4, Gly^5-ol]-enkephalin), a selective μ-opioid agonist.

Question: For `CN(C)C(=O)C(CCN1CCC(O)(c2ccccc2OCCCCCCO)CC1)(c1ccccc1)c1ccccc1.Cl`, which melting point is on record?
Answer: 110 °C

Question: Which melting point does the source give for `CN(C)C(=O)C(CCN1CCC(O)(c2cccc(O)c2)CC1)(c1ccccc1)c1ccccc1` here?
Answer: 169 °C

Question: For `CCCCNC(=O)C(CCN1CCC(O)(c2ccccc2OCCO)CC1)(c1ccccc1)c1ccccc1`, which melting point is on record?
Answer: 130 to 131 °C

Question: For `C[C@@H](NC(=O)[C@@H](N)Cc1ccc(O)cc1)C(=O)NCC(=O)N(C)[C@@H](Cc1ccccc1)C(=O)NCCO` [DAMGO, [D-Ala^2, N-MePhe^4, Gly^5-ol]-enkephalin], which Relative potency (opioid receptor) is on record?
Answer: 1.0

Question: For `CN(C)C(=O)C(CCN1CCC(O)(c2ccc(O)cc2)CC1)(c1ccccc1)c1ccccc1`, which melting point is on record?
Answer: 155 °C
